Several values for one entry are separate records, joined by “and”; a condition that tells them apart may be missing. Identical values can stand only once.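 Growth conditions: 96-well plates. Treatment: test compound, 48 hours, 5 concentrations. Analysis: linear interpolation between bracketing concentrations; unreached endpoints set to highest concentration. Here, GI50 denotes the concentration required for 50% inhibition of growth. TGI is the concentration that stops growth completely.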 Where a SMILES comes first, the peptide text is derived from it. [ ]: non-standard residue; d: D form. Ac5c = NC1(C(=O)O)CCCC1
Columns and labels:
Assay in all cases: NCI-60 cell line screen, 48 h
NCI/ADR-RES ovarian = tested on: NCI/ADR-RES ovarian
MCF7 breast = tested on: MCF7 breast
PC-3 prostate = tested on: PC-3 prostate
UACC-257 melanoma = tested on: UACC-257 melanoma
HL-60(TB) leukemia = tested on: HL-60(TB) leukemia
RXF 393 renal = tested on: RXF 393 renal
MALME-3M melanoma = tested on: MALME-3M melanoma
MDA-MB-231 breast = tested on: MDA-MB-231 breast
SW-620 colon = tested on: SW-620 colon
KM12 colon = tested on: KM12 colon

SMILES | GI50 (NCI/ADR-RES ovarian) | TGI (NCI/ADR-RES ovarian) [µM] | GI50 (MCF7 breast) [µM] | TGI (MCF7 breast) [µM] | GI50 (PC-3 prostate) | TGI (PC-3 prostate) [µM] | GI50 (UACC-257 melanoma) [µM] | TGI (UACC-257 melanoma) [µM] | GI50 (HL-60(TB) leukemia) [µM] | TGI (HL-60(TB) leukemia) [µM] | GI50 (RXF 393 renal) [µM] | TGI (RXF 393 renal) [µM] | GI50 (MALME-3M melanoma) | TGI (MALME-3M melanoma) [µM] | GI50 (MDA-MB-231 breast) | TGI (MDA-MB-231 breast) [µM] | GI50 (SW-620 colon) | TGI (SW-620 colon) [µM] | GI50 (KM12 colon) | TGI (KM12 colon) [µM]
CC(C)c1ccc(C(=O)Nc2nc3ccc(O)cc3s2)cc1 | 0.948 µM | > 100 | 0.442 | 48.2 | 3.23 µM | > 100 | 1.51 | > 100 | 0.481 | 20.2 | 2.6 | 13.9 | 0.684 µM | > 100 | 1.97 µM | > 100 | 0.552 µM | > 100 | 0.262 µM | > 100
CN1CCN(CCCN)CC1 | – | > 100 | – | > 100 | – | > 100 | – | > 100 | – | > 100 | – | > 100 | – | > 100 | – | > 100 | – | > 100 | – | > 100
O=S(=O)(NC1=NCCN1C(=S)SN1CCn2c1nsc2=S)c1ccc(Br)cc1 | > 100 µM | > 100 | 31.7 | > 100 | 30.8 µM | > 100 | 46.6 | > 100 | 24.3 | 60.1 | 17.8 | 51.4 | 11.7 µM | 56.3 | 28.8 µM | > 100 | 24.2 µM | 73 | 25.5 µM | > 100
Cc1cc(I)cc(CN(C)CCCN2CCSCC2)c1O | 24.8 µM | 76.5 | 18.5 | 40.5 | 29.8 µM | > 100 | 26.4 | 92.1 | 18.8 | 36.6 | 17.2 | 39 | 23.2 µM | 44.6 | 27.8 µM | 92.3 | 19.4 µM | 38.9 | 37.2 µM | > 100
O=C1Nc2ccc(C(=O)c3ccco3)cc2/C1=C/c1cc(Cl)c(O)c(Cl)c1 | 9.61 µM | > 25 | 6.1 | > 25 | 6.52 µM | > 24.1 | 4.79 | 17.9 | 6.93 | > 21.1 | 2.77 | 15.5 | 1.66 µM | 11.1 | 9.89 µM | > 25 | 4.8 µM | > 23.8 | 3.62 µM | > 17.7
O=c1c2cc(Cl)ccc2oc2ccc(OCCCCCN3CCCCC3)cc12 | 5.47 µM | 24.8 | 5.24 | 14.6 | 6.05 µM | 12.7 | 1.3 | 3.2 | 6.24 | 15.4 | 1.86 | 7.2 | 6.86 µM | 14.1 | 3.15 µM | 9.77 | 1.55 µM | 5.09 | 2.68 µM | 9
CCOC(=O)Nc1nc2ccc(Cn3cccc3)cc2[nH]1 | – | 21.2 | – | > 100 | – | > 38.2 | – | 26.2 | – | 13.4 | – | > 22.3 | – | > 100 | – | > 27.2 | – | > 100 | – | > 100
COC(=O)CCc1cc(OC)c2c(c1)C(C(=O)OC)C(c1ccc(OC)c(OC)c1)O2 (stereo unspecified) | > 100 µM and 26.8 µM | > 100 | – | > 100 | > 100 µM and 28.8 µM | > 100 | – | > 100 | – | > 100 | – | > 100 | > 100 µM and 20 µM | > 100 | > 100 µM and 21.4 µM | > 100 | > 100 µM and 17.3 µM | > 100 | > 100 µM and 19.6 µM | > 100
NC1(C(=O)NC2(C(=O)O)CCCC2)CCCC1 (H-[Ac5c]-[Ac5c]-OH) | – | > 100 | – | > 100 | – | > 100 | – | > 100 | – | > 100 | – | > 100 | – | > 100 | – | > 100 | – | > 100 | – | > 100
